Measured values reported in PubChem BioAssay AID720714 (Broad Institute, 2013).
Active and inactive are the calls of the source. How the calls were made is not given here.

Test system: HepG2 cytotoxicity, plate reader
Assay: viability loss in HepG2 hepatoma cells – cell-based, plate reader, dry powder, set 3, cytotoxicity control, dose response (AID 720714)
Settings: not given

Row | SMILES | AC50 [µM]
1 | CN(C)c1nc(-c2ccccn2)nnc1-c1ccccc1 | 26.5
2 | CC(C)(C)NC(=O)CSc1nc2ccc(NC(=O)CSc3nnnn3Cc3ccccc3)cc2s1 | 15.5
3 | O=C(c1nnsc1S(=O)c1ccc(Cl)cc1)N1CCOCC1 (stereo unspecified) | 14.5
4 | COc1cc(CN2CCc3ccccc3C2)ccc1O | 21.6

Test system: not listed separately
Assay: as above
Settings: HepG2 cytotoxicity, plate reader; at 26 µM (top of the series)

Row | SMILES | activity change, negative = cytotoxicity
5 | O=C1CSc2ccc(C(=O)Nc3cccc(S(=O)(=O)Nc4ccc(Br)cc4)c3)cc2N1 | -35.1% (inactive)
6 | Nc1nonc1C(=O)NCCNCc1cc(Br)ccc1OCc1ccc(F)cc1 | -54.9% (inactive)
7 | COc1ccc(NS(=O)(=O)c2ccc(C(=O)N3CCCCCC3)cc2)cc1 | 41.5% (inactive)
8 | COc1cc2ncnc(N[C@H](C)c3ccccc3)c2cc1OC | 45.6% (inactive)
9 | CN(CC(=O)Nc1cccc(S(=O)(=O)N2CCOCC2)c1)CC(=O)Nc1ccc(Cl)c(C(F)(F)F)c1 | -15.1% (inactive)
10 | CCCc1nnc(NC(=O)c2nc(S(=O)(=O)Cc3ccc(C)cc3)ncc2Cl)s1 | 26.2% (inactive)
11 | COc1ccc(NC(=O)c2nc(S(=O)(=O)Cc3cccc(C)c3)ncc2Cl)c(OC)c1 | -19.7% (inactive)
12 | CC(=O)N1CCN(C(=O)CCc2cc(C(C)(C)C)c(O)c(C(C)(C)C)c2)CC1 | 84.8% (inactive)
13 | COc1ccccc1N1CCN(c2ncc(C(=O)N3CCN(c4cccc(Cl)c4)CC3)c3ccccc23)CC1 | 111% (inactive)
14 | COc1ccc(Nc2nc(N3CCCCC3)c3ccccc3n2)cc1 | -24.8% (inactive)
15 | CCOC(=O)C1CCN(C(=O)c2ccc(OCC(=O)Nc3cccc(C(F)(F)F)c3)c(OC)c2)CC1 | 11.7% (inactive)
16 | Cc1cc(N2CCCC2=O)cc(C)c1S(=O)(=O)NCCOc1ccc(C(C)(C)C)cc1 | 15.4% (inactive)
17 | Cc1cc2c(cc(C(=O)N3CCC(C(=O)NC4CCCC4)CC3)n2Cc2c(F)cccc2Cl)o1 | 132% (inactive)
18 | Cc1ccc2cc(CN(CC3CCCO3)C(=O)NC3CCCCC3)c(=O)[nH]c2c1C (stereo unspecified) | 64.3% (inactive)
19 | CC(C)[C@H](NC(=O)OC(C)(C)C)c1nnc(S(=O)(=O)Cc2c(F)cccc2Cl)o1 | -90.6% (inactive)
20 | Fc1ccc(-n2nnnc2-c2cnc(-c3cccs3)nc2C(F)(F)F)cc1 | 23.6% (inactive)
21 | CC(=O)Nc1cccc(NC(=O)CSc2ncc(-c3ccc(Cl)cc3)n2Cc2ccco2)c1 | -23% (inactive)
22 | COc1ccc2c(c1)c(CC(=O)Nc1cc(C)ccc1C)c(C)n2C(=O)c1ccc(Cl)cc1 | 8.4% (inactive)
23 | O=c1c2ccccc2nc2n1C(CSCc1ccc(Cl)cc1Cl)CS2 (stereo unspecified) | -17.2% (inactive)
24 | CN(C)S(=O)(=O)c1cccc(NC(=O)c2cccc(S(=O)(=O)N3CCc4ccccc43)c2)c1 | 10.3% (inactive)
25 | CN(C(=O)COc1ccccc1C(=O)NCCOc1ccccc1)c1ccccc1 | -26.1% (inactive)
26 | CCCOc1ccccc1C1CC(=O)Nc2cc3c(cc21)OCO3 (stereo unspecified) | 73.2% (inactive)
